# The source made the active and inactive calls.
# What was measured:
# [1] = molecular target: Troponin, cardiac muscle (Homo sapiens, UniProt P19429+P45379+P63316); test: Fluorescence-based biochemical high throughput dose response assay for activators of the calcium sensitivity of cardiac Regulated Thin Filaments (RTF). [Related pubchem assays (depositor defined):AID493008, AID493018, AID504382, AID504383]; type: protein-complex assay
# [2] = system: INS1; test: beta cell apoptosis inhibitors, cytokine rescue, dose response, luminescence, retest (AID 449756); type: functional, cell-based; settings: Rattus norvegicus;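 further: cell death triggered by IL-1 beta plus TNF-alpha plus IFN-gamma mixture; protective hits raise ATP signal compared with cytokine alone wells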
# [3] = molecular target: T1, Hexokinase-1 (Homo sapiens, UniProt P19367); test: hexokinase 1 activators, dose response, selectivity assay for HKDC1 activator project, biochemical (AID 504762); type: functional
# T1 sequence (P19367 whole entry): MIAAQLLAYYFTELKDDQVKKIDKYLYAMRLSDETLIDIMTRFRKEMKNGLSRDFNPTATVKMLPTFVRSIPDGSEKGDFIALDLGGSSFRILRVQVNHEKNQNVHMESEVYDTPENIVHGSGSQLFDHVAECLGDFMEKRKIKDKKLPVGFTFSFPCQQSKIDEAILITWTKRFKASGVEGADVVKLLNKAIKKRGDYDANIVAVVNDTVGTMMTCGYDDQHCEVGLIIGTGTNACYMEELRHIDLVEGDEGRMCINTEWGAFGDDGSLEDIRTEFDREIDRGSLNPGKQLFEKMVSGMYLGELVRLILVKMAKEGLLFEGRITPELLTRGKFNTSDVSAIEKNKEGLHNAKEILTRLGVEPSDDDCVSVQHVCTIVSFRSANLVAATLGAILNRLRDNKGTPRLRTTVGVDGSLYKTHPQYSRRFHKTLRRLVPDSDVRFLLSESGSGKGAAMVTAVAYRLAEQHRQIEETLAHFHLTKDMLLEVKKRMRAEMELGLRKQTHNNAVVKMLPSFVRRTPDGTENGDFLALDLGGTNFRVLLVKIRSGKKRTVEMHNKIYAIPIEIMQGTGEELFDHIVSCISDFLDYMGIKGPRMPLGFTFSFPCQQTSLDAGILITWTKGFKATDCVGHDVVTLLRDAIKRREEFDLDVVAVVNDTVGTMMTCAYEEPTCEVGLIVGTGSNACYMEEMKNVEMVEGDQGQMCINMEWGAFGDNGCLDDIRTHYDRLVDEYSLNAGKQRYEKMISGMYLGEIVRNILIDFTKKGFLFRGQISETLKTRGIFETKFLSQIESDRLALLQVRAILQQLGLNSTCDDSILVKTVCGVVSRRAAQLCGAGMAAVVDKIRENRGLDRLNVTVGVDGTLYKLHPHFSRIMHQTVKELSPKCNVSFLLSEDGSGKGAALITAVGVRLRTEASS
# [4] = molecular target: T2, Hexokinase HKDC1 (Homo sapiens, UniProt Q2TB90); test: HKDC1 hexokinase activators, dose response, biochemical, W721R variant (AID 504730); type: functional
# T2 sequence (Q2TB90 whole entry): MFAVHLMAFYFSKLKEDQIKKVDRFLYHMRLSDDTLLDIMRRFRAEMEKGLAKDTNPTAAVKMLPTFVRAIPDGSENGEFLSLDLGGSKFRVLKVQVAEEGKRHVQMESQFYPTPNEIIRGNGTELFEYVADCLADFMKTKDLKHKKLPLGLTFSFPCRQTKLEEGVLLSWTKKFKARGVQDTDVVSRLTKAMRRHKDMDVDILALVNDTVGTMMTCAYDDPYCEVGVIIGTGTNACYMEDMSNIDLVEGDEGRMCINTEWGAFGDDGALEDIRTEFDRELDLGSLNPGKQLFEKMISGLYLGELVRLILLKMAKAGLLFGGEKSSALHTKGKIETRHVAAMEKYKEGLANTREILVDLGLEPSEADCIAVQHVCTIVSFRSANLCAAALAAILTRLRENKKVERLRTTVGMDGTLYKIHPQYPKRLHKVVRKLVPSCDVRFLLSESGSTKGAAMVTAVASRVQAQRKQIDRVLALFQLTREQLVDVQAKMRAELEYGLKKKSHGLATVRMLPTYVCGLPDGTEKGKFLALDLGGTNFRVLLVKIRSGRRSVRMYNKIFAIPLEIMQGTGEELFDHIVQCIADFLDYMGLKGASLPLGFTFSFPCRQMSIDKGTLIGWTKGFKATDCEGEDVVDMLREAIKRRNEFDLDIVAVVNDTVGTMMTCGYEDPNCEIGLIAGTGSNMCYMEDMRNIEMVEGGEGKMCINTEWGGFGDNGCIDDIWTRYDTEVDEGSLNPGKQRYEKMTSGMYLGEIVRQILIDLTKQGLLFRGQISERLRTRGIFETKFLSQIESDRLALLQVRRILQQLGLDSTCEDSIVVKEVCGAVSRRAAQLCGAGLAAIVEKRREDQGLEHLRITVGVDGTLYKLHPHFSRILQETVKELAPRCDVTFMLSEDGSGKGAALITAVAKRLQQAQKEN
# [5] = molecular target: DNA dC->dU-editing enzyme APOBEC-3A (Homo sapiens, UniProt P31941); test: Dose Response confirmation of small molecule APOBEC3A DNA Deaminase Inhibitors via a fluorescence-based single-stranded DNA deaminase assay. [Related pubchem assays (depositor defined):AID493011, AID493024]; type: functional
# [6] = molecular target: DNA dC->dU-editing enzyme APOBEC-3G (Homo sapiens, UniProt Q9HC16); type: functional;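 further: Dose-response counterscreen measuring inhibition of APOBEC3G DNA deaminase activity, run while confirming APOBEC3A inhibitors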
# Chain of DNA dC->dU-editing enzyme APOBEC-3G (Q9HC16 whole entry): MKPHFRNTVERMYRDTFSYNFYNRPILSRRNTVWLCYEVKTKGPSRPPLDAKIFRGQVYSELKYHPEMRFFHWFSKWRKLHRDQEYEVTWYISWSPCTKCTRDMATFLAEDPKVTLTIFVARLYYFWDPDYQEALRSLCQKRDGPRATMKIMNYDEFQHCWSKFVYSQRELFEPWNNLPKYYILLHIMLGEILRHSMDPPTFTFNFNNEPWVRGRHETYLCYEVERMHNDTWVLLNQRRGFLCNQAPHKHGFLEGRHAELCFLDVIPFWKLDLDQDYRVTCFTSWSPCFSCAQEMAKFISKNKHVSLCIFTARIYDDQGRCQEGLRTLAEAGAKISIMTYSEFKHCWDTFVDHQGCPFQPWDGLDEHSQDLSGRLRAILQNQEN
# Chain of DNA dC->dU-editing enzyme APOBEC-3A (P31941 whole entry): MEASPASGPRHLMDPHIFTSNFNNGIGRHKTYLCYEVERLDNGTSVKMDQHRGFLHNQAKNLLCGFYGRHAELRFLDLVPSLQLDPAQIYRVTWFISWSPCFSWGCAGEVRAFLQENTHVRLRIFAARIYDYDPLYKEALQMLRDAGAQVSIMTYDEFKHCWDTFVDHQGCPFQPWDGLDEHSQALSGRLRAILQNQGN
smiles,measurement,setting,value
COc1cc(OC)c(C(=O)OC(C)C(=O)Nc2cccc(C(F)(F)F)c2)cc1OC (stereo unspecified),EC50,[1],> 71.5 µM (inactive)
Clc1cccc(NC2=NN=C(c3ccc4c(c3)OCCO4)CS2)c1,AC50,[2],2.25 µM (active)
same,EC50,[3],41.3 µM (inactive)
same,EC50,[4],23.2 µM (inactive)
CCOCc1cnc(C)nc1NCC(=O)c1c(C)[nH]c2ccc(OC)cc12,IC50,[5],2.59 µM (active)
same,IC50,[6],5.53 µM (active)

# From ChEMBL document CHEMBL1201862, “PubChem BioAssay data set” (2004)
